Several values for one entry are separate records, joined by “and”; a condition that tells them apart may be missing. Identical values can stand only once.
Tests used:
[1] = tested on: HCT116+/+ cells (In Vivo); test: Microarray analysis of EGF-family mRNA in HCT116 xenograft tumours after chemotherapy; design: species or system human; settings: for EGF (Epidermal Growth factor) fold change, microarray: drug treated against untreated control
Procedure: 6-8 week old female SCID mice were implanted with 2×10^6 HCT116+/+ human colorectal adenocarcinoma cells into each flank. HCT116 cells in a log phase of growth were harvested, washed in PBS and resuspended in HBSS. They were mixed with equal volumes of matrigel to give a final concentration of 5×10^6 cells/ml. Mice were randomly separated into treatment groups on day 5 after implantation and treated with different doses of chemotherapy. […] All drugs were administered through a bolus injection. Animals were sacrificed at various time points and tumours were removed for analysis
Approximately 10 μg total RNA was isolated from tumour cells and was used as the starting material for preparation of probes. The microarray analysis was carried using an Affymetrix U133 plus 2.0 GeneChip®. Probes were prepared as per the manufacturers recommendations.
After RNA extraction, samples were reverse transcribed into cDNA which was then purified on a column prior to labelling. The probes were then amplified and labelled using Oligo(dT)-primed in vitro transcription generating high-yield, biotinylated targets from the 3′-end. […] For the next stage the fragmented cRNA was hybridised to the array for 16 hours at 45° C. Following this the array was washed and stained with streptavidin-phycoerythrin (SAPE) using a fluidics station and scanned using a GeneChip® Scanner 3000. Stained images were then analysed.
Initially the data was scaled using the Affymetrix® GCOS (Genechip® Operating System) software, to assess quality metrics. The data was then normalized against a control sample. After normalisation the data was filtered removing all genes where the noise level obscured signal and were fold change was […] 2-fold. Finally a confidence filter where the t-test p-value were used to filter the genes to derive lists of statistically robust data.
Each treatment type and timepoint was carried out in triplicate and statistics and filtering were applied to the whole data set from each condition.
A xenograft study was set up to examine the genetic response to 2 different chemotherapeutic drugs 24 and 48 hours after treatment. Each mouse was implanted with equal volumes of HCT116 cells and each condition was performed in triplicate.
RNA isolated from tumours in each of the 12 mice was subjected to microarray analysis to measure mRNA expression levels. Fold change values for drug treated against untreated control is presented.

RKO +/+ = test: Semi quantitative RT-PCR of AREG RNA in RKO cells after chemotherapy; format: cell-based, human; settings: 48 h after treatment, 7.5 μM
Procedure: FIG. 1A illustrates analysis of AREG and beta actin RNA expression in RKO +/+ with/without either a 48 hour CPT11 treatment or 5-Fu treatment. RNA levels were analyzed following 35 cycle of PCR to determine relative differences in expression between treated and untreated samples;
(§1) Cells in a log phase of growth were seeded into T75 flask at ˜20% confluence and incubated overnight to allow adherence to the plate. […] Chemotherapy was substituted with saline in control flasks. After different time exposure to chemotherapy the cells were harvested, washed 3 times in PBS and total RNA was isolated using the RNA TAT-60 reagent according to the manufacturer instructions.
(§2) Reverse transcription was performed with 2.5 μg of RNA using a High Capacity cDNA Archive kit (Applied Biosystem) according to the instruction of the manufacturer.
(§3) Semi quantitative RT-PCR was performed using a PTC 225 Gradient Cycler (MJ Research Incorporated. The PCR mixture, in a final volume of 25 μL, contains 12.5 μL of 2× Biomix (Bioline, UK), 2 μL of primers (10 μmol/L), 1 μL of cDNA and 9.5 μL of dH2O). PCR conditions were initial denaturation step of 95 C for 10 minutes, followed by 35 cycles of 95° C. for 30 sec for denaturation; as annealing step 55° C. for 30 sec; and extension at 72° C. for 90 sec, with a final extension of 72° C. for 10 minutes. […]

HCT116 = test: RT-PCR of AREG RNA in HCT116 cells after chemotherapy; format: cell-based, human; settings: 48 h after treatment, 7.5 μM
Procedure: FIG. 1B illustrates analysis of AREG and beta actin RNA expression in HCT116 +/+ with/without a 48 hour CPT11 treatment. RNA levels were analyzed following 35 cycles of PCR to determine relative differences in expression between treated and untreated samples;
(§4) FIG. 6 illustrates AREG upregulation following chemotherapeutic challenge in A) HT29, B) HCT116 and C) MDA-MB231 cells. Cells were treated with/without chemotherapy for 48 hours. RT-PCR was performed with 1 μg of total RNA using primer pairs specific for the human AREG gene or GAPDH. The PCR products were separated on 1.5% agarose gel electrophoresis and visualized by ethidium bromide staining.
as §1, with “instructions. […]” for “instructions.”
Semi quantitative RT-PCR was performed using a PTC 225 Gradient Cycler (MJ Research Incorporated. The PCR mixture, in a final volume of 25 μL, contains 12.5 μL of 2× Biomix (Bioline, UK), 2 μL of primers (10 μmol/L), 1 μL of cDNA and 9.5 μL of dH2O). […]

H460 lung cancer cells = test: RT-PCR of AREG RNA in H460 lung cancer cells after chemotherapy; format: cell-based; settings: 48 hour treatment
Procedure: FIG. 5 illustrates analysis of AREG and beta actin RNA expression in H460 lung cancer cells with/without either a 48 hour CPT11 treatment or 5-Fu treatment. RNA levels were analyzed following 35 cycle of PCR to determine relative differences in expression between treated and untreated samples.
as §1, §2, §3

[2] = tested on: MDA-MB231 breast carcinoma cell line; test: RT-PCR of AREG mRNA in MDA-MB231 cells after chemotherapy; format: cell-based, human; settings: IC50 dose, 48 hours
Procedure: as §4
For Example 2, Total RNA was isolated from cells following the RNA STAT-60 manufacturer's protocol (Biogenesis, Poole, U.K.). RT-PCR was performed with 1 μg of total cell RNA using a Promega ImProm-II™ Reverse Transcription System (Promega, Southhampton, UK). PCR was performed using primer pairs specific for human AREG (Forward 5′-[…]-3′(SEQ ID No:19), Reverse 5′-[…]-3′ (SEQ ID No:20)), human HB-EGF (Forward 5′-[…]-3′(SEQ ID No:21), Reverse 5′-[…]-3′(SEQ ID No:22)), human GAPDH as a control (Forward 5′[…]-3′(SEQ ID No:23), Reverse 5′ […]-3′(SEQ ID NO:24)) and human Beta-actin as a control (Forward 5′-[…]-3′(SEQ ID No:25), Reverse 5′-[…]-3′(SEQ ID No:26)).
The PCR products were separated on 1.5% agarose gel and visualized by ethidium bromide staining.

[3] = HCT116+/+ xenograft, 70 mg/kg bolus, 24 h, vs untreated control
[4] = HCT116+/+ xenograft, 70 mg/kg bolus, 24 h, vs untreated control, 70 mg/kg
[5] = HCT116 xenograft, treated by 5-FU, time not stated

O=c1[nH]cc(F)c(=O)[nH]1 [5-FU, 5-Fluorouracil]
EGF (Epidermal Growth factor) fold change, microarray ([1]; HCT116+/+ xenograft, 70 mg/kg bolus, 24 h): −2.4 fold | NRG3 fold change, microarray [1, 3]: −2.1 fold | NRG4 fold change, microarray [1, 3]: −1.1 fold | HB-EGF (Heparin-Binding EGF-like growth factor) fold change, microarray [1, 4]: 1.6 fold and 3.1 fold | TGF alpha (Transforming Growth factor alpha) fold change, microarray [1, 4]: 1.3 fold and 1.8 fold | EGF (Epidermal Growth factor) fold change, microarray ([1]; HCT116+/+ xenograft, 70 mg/kg bolus, 48 h): −3.8 fold | NRG4 fold change, microarray ([1]; HCT116+/+ xenograft, 70 mg/kg bolus, 48 h, vs untreated control): −1.8 fold | fold change values for AREG mRNA expression, treated against untreated controls ([1]; HCT116 xenograft, 70 mg/kg, after 48 hours): 2.1 fold | HB-EGF regulation in micro-array analysis [1, 5]: up-regulation | TGF regulation in micro-array analysis [1, 5]: up-regulation | AREG RNA expression (RT-PCR) (RKO +/+): upregulation | AREG RNA expression (RT-PCR) (HCT116): upregulation | AREG RNA expression (RT-PCR, 35 cycles) (H460 lung cancer cells): enhanced expression of AREG | AREG mRNA expression (RT-PCR) [2]: up-regulation
